Laboratory results published in patent US6660742B2, “Compositions and methods of the use thereof achiral analogues of CC-1065 and the duocarmycins” (priority 2000, dated 2003).
Values joined by “and” are separate entries in the source; they are usually repeats but may differ in a detail not shown here. Identical values can stand only once. Like-named read-outs stand apart in the source and are kept apart here.

Tests used:
NCI-H226 = assay: NCI screen, NCI-H226 (Non-Small Cell Lung Cancer); format: cell-based, human
Experimental: (§1) The compounds of this invention were also tested against the panel of 60 human cancer cell lines at the National Cancer Institute, Bethesda, Md. […] The cytrotoxicity studies were conducted using a 48 hour exposure, and measuring the optical density of sulforhodamide B-derived color.

MDA-MB-435 = assay: NCI screen, MDA-MB-435 (Breast Cancer); format: cell-based, human
Experimental: as §1

MDA-MB-231/ATCC = settings: MDA-MB-231/ATCC
SR = assay: NCI screen, SR (Leukemia)
Experimental: as §1

U251 = assay: NCI screen, U251 (CNS Cancer)
Experimental: as §1

UACC-62 = assay: NCI screen, UACC-62 (Melanoma)
Experimental: as §1

CCRF-CEM = assay: NCI screen, CCRF-CEM (Leukemia)
Experimental: as §1

SF-268 = assay: NCI screen, SF-268 (CNS Cancer)
Experimental: The compounds of this invention were also tested against the panel of 60 human cancer cell lines at the National Cancer Institute, Bethesda, Md. (44). The cytrotoxicity studies were conducted using a 48 hour exposure, and measuring the optical density of sulforhodamide B-derived color.

SF-539 = assay: NCI screen, SF-539 (CNS Cancer)
Experimental: as §1

SNB-19 = assay: NCI screen, SNB-19 (CNS Cancer)
Experimental: as §1

SK-MEL-2 = assay: NCI screen, SK-MEL-2 (Melanoma)
Experimental: as §1

SK-MEL-5 = assay: NCI screen, SK-MEL-5 (Melanoma)
Experimental: as §1

786-0 = assay: NCI screen, 786-0 (Renal Cancer)
Experimental: as §1

TK-10 = assay: NCI screen, TK-10 (Renal Cancer)
Experimental: as §1

MCF7 = assay: NCI screen, MCF7 (Breast Cancer)
Experimental: as §1

MDA-N = assay: NCI screen, MDA-N (Breast Cancer)
Experimental: as §1

HCT-116 = assay: NCI screen, HCT-116 (Colon Cancer)
Experimental: as §1

OVCAR-3 = assay: NCI screen, OVCAR-3 (Ovarian Cancer)
Experimental: as §1

EKVX = assay: NCI screen, EKVX (Non-Small Cell Lung Cancer)
Experimental: as §1

HOP-62 = assay: NCI screen, HOP-62 (Non-Small Cell Lung Cancer)
Experimental: as §1

## O=C(Nc1cc(O)ccc1CCCl)c1cc2cc(NC(=O)c3cc4ccccc4o3)ccc2[nH]1 [Compound 1, 4-(2-Chloroethyl)-3-[5-(5-benzofuran-2-carboxamido)indole-2-carboxamido]phenol]
NCI-H226
  GI50: 4090 nM
  TGI: 1.62E−05 Molar
NCI-H226; Log10 Concentration −4.0
  Percent Growth: −90%
NCI-H226; Log10 Concentration −8.0
  Percent Growth: 100%
MDA-MB-435
  GI50: 1890 nM
  TGI: 3.75E−06 Molar
MDA-MB-435; Log10 Concentration −4.0
  Percent Growth: −94%
MDA-MB-435; Log10 Concentration −6.0
  Percent Growth: 96%
HOP-92
  GI50: 2620 nM
  TGI: 5.53E−06 Molar
HOP-92; Log10 Concentration −4.0
  Percent Growth: −92%
HOP-92; Log10 Concentration −8.0
  Percent Growth: 94%
NCI-H322M
  GI50: 2830 nM
  Percent Growth: 93%
  TGI: 9.60E−06 Molar
HCT-15
  GI50: 1910 nM
  Percent Growth: −91%
  TGI: 4.89E−06 Molar
MDA-MB-231/ATCC
  GI50: 2430 nM
  TGI: 7.10E−06 Molar
MDA-MB-231/ATCC; Log10 Concentration −4.0
  Percent Growth: −65%
MDA-MB-231/ATCC; Log10 Concentration −5.0
  Percent Growth: −16%
MDA-MB-231/ATCC; Log10 Concentration −6.0
  Percent Growth: 92%
MDA-MB-231/ATCC; Log10 Concentration −7.0
  Percent Growth: 97%
MDA-MB-231/ATCC; Log10 Concentration −8.0
  Percent Growth: 94%
SR
  GI50: 852 nM
  TGI: 8.12E−06 Molar
SR; Log10 Concentration −4.0
  Percent Growth: −7%
U251
  Percent Growth: 77%
U251; U251
  GI50: 2410 nM
  TGI: 1.23E−05 Molar
U251; U251, Log10 Concentration −4.0
  Percent Growth: −71%
U251; U251, Log10 Concentration −5.0
  Percent Growth: 7%
U251; U251, Log10 Concentration −7.0
  Percent Growth: 101%
UACC-62
  GI50: 1970 nM
  TGI: 3.49E−06 Molar
UACC-62; Log10 Concentration −4.0
  Percent Growth: −99%
UACC-62; Log10 Concentration −7.0
  Percent Growth: 104%
UACC-62; Log10 Concentration −8.0
  Percent Growth: 100%
CCRF-CEM
  GI50: 1260 nM
  TGI: 5.28E−06 Molar
CCRF-CEM; Log10 Concentration −4.0
  Percent Growth: −13%
SF-268
  Percent Growth: 68% and 70% and 88%
SF-268; SF-268
  GI50: 13400 nM
  TGI: 2.78E−05 Molar
SF-268; SF-268, Log10 Concentration −4.0
  Percent Growth: −88%
SF-268; SF-268, Log10 Concentration −7.0
  Percent Growth: 88%
SF-539
  GI50: 1920 nM
  TGI: 4.16E−06 Molar
SF-539; Log10 Concentration −4.0
  Percent Growth: −100%
SF-539; Log10 Concentration −8.0
  Percent Growth: 92%
SNB-19
  GI50: 3530 nM
  TGI: 1.38E−05 Molar
SNB-19; Log10 Concentration −4.0
  Percent Growth: −75%
SK-MEL-2
  GI50: 1320 nM
  TGI: 2.67E−06 Molar
SK-MEL-2; Log10 Concentration −4.0
  Percent Growth: −91%
SK-MEL-2; Log10 Concentration −7.0
  Percent Growth: 101%
SK-MEL-5
  GI50: 1730 nM
  TGI: 3.34E−06 Molar
SK-MEL-5; Log10 Concentration −4.0
  Percent Growth: −97%
SK-MEL-5; Log10 Concentration −6.0
  Percent Growth: 92%
SK-MEL-5; Log10 Concentration −7.0
  Percent Growth: 104%
786-0
  GI50: 2620 nM
  TGI: 1.07E−05 Molar
786-0; Log10 Concentration −4.0
  Percent Growth: −50%
786-0; Log10 Concentration −5.0
  Percent Growth: 2%
786-0; Log10 Concentration −6.0
  Percent Growth: 85%
786-0; Log10 Concentration −7.0
  Percent Growth: 101%
786-0; Log10 Concentration −8.0
  Percent Growth: 98%
TK-10
  Percent Growth: −31%
TK-10; TK-10
  GI50: 2450 nM
  TGI: 5.85E−06 Molar
TK-10; TK-10, Log10 Concentration −4.0
  Percent Growth: −95%
TK-10; TK-10, Log10 Concentration −6.0
  Percent Growth: 101%
TK-10; TK-10, Log10 Concentration −7.0
  Percent Growth: 98%
TK-10; TK-10, Log10 Concentration −8.0
  Percent Growth: 104%
MCF7
  GI50: 1030 nM
  TGI: 2.27E−06 Molar
MCF7; Log10 Concentration −4.0
  Percent Growth: −100%
MCF7; Log10 Concentration −8.0
  Percent Growth: 111%
MDA-N
  Percent Growth: −35%
MDA-N; MDA-N
  GI50: 2280 nM
  TGI: 5.47E−06 Molar
MDA-N; MDA-N, Log10 Concentration −4.0
  Percent Growth: −87%
MDA-N; MDA-N, Log10 Concentration −6.0
  Percent Growth: 97%
MDA-N; MDA-N, Log10 Concentration −7.0
  Percent Growth: 103%
MDA-N; MDA-N, Log10 Concentration −8.0
  Percent Growth: 100%
HCT-116
  Percent Growth: 81% and 99%
HCT-116; HCT-116
  GI50: 1940 nM
  TGI: 5.73E−06 Molar
HCT-116; HCT-116, Log10 Concentration −4.0
  Percent Growth: −89%
HCT-116; HCT-116, Log10 Concentration −5.0
  Percent Growth: −26%
HCT-116; HCT-116, Log10 Concentration −7.0
  Percent Growth: 95%
OVCAR-3
  GI50: 2130 nM
  TGI: 4.69E−06 Molar
OVCAR-3; Log10 Concentration −4.0
  Percent Growth: −99%
OVCAR-3; Log10 Concentration −7.0
  Percent Growth: 102%
OVCAR-3; Log10 Concentration −8.0
  Percent Growth: 94%
EKVX
  GI50: 1780 nM
  TGI: 4.41E−06 Molar
EKVX; Log10 Concentration −4.0
  Percent Growth: −80%
EKVX; Log10 Concentration −7.0
  Percent Growth: 96%
HOP-62
  GI50: 453 nM
  TGI: 3.07E−06 Molar
HOP-62; Log10 Concentration −4.0
  Percent Growth: −98%
